Patent US7671026B2, “Cytomodulating peptides for treating interstitial cystitis” (Sangstat Medical Corporation, priority 2002, dated 2010)

Assays:
[1] = test system: TNF-α; test: Ex vivo LPS-stimulated bladder tissue culture, TNF-α ELISA; assay type: cell-based, mice; settings: first study; BALB/c bladder tissue, 1 ug LPS + RDP58 50 uM final, 18 hrs, each pool
Experimental: The ability of RDP58 peptide bc-1nL in inhibiting cytokine production in bladder cells was examined. In a first study, BALB/c mice were euthanized with CO2 and the bladders harvested after voiding it of urine. Bladders were gently washed with RMPI 1640 media containing penicillin and streptomycin and minced into 1-2 mm pieces. Equal amounts of tissue were incubated overnight at 37° C. in 0.5 ml of RPMI culture medium in the presence of 1 ug LPS (E. coli. 055:B5; Sigma), 50 ul of RDP58 peptide (1 mg/ml) (50 uM final concentration), 1 ug LPS+50 ul of RDP58 peptde, or media alone. The culture supernatants were collected after 18 hrs, clarified by centrifugation, and assayed by ELISA for cytokines TNF-αand IFN-γ.
In a second study, bladders from 12 normal mice were harvested, pooled into four sets of three bladders, and the tissues minced into 1-2 mm pieces. Equal amounts of tissue were incubated overnight in culture media containing LPS, RDP58 peptide, LPS+RDP58 peptide, or media, as described above. After clarifying the culture medium by centrifugation, supernatants were assayed for presence of TNF-α by ELISA.

[2] = test system: CD3 positive cells; test: Chronic interstitial cystitis model, CD3/CD45 immunostaining of bladder sections; assay type: in vivo, mice; settings: animals exposed to LPS, then RDP58; 24 hrs and 72 hrs after RDP58 treatment
Experimental: Chronic IC model was induced in mice by transurethrally catheterizing mice and instilling with 15 ug of E.coli. lipopolysaccharide (LPS) in 150 ul. Controls were instilled with 150 ul of saline. Animals were treated three times per week for two weeks. To determine the effect of RDP58, animals were instilled with the peptide following 14 days of LPS instillation. Histological analyses of the bladders were carried out 24 or 72 hrs post treatment. Cytokine levels were assayed by removing the bladder 24 hrs following RDP58 treatment, culturing the tissue ex vivo, and assaying for cytokines, as described above. Bladder permeability used the FITC-dextran assay.
Bladder from the various animal groups were removed after the treatments and then sectioned. Morphology was examined by staining with haematoxylin-eosin. Sections were examined for the presence of T-cell differentiation markers CD3 or CD45 by immunostaining with anti-CD45 and anti-CD3 antibodies.

## Arg-nL-nL-nL-Arg-nL-nL-nL-Gly-Tyr [RDP58]
[1]
  inhibition of TNF-α production: about 30%
[2]
  CD3 positive cells in bladder tissue sections: reduction of CD3 positive cells
